Series [1] in a line: Oral bioavailability in male Sprague-Dawley rat at 200 mg/kg measured after 18 hrs LC/MS-MS analysis. Format: ADME, organism-based. The conditions noted are these: in vivo.
The test system of series [2] is Mus musculus. In words: Antitumor activity against Balb/c mouse implanted with mouse WEHI-3 cells assessed as reduction in splenomegaly at 100 to 200 mg/kg, po administered once daily for 15 days. It counts as functional, organism-based. The conditions noted are these: dose 100-200 mg/kg, time 15.0 day.
The nature of series [3]: Cmax in male Sprague-Dawley rat at 50 mg/kg, iv measured after 18 hrs LC/MS-MS analysis. Format: ADME, organism-based. The conditions noted are these: in vivo.
In series [4] the test system is Mus musculus. In words: Antitumor activity against Balb/c mouse implanted with mouse WEHI-3 cells assessed as reduction in splenomegaly at 1 mg/kg, po administered once daily for 15 days. It counts as functional, organism-based. The conditions noted are these: time 15.0 day.
The subject of series [5] is Mus musculus. In words: Antitumor activity against Balb/c mouse implanted with mouse WEHI-3 cells assessed as reduction in hepatomegaly at 100 to 200 mg/kg, po administered once daily for 15 days. The conditions noted are these: dose 100-200 mg/kg, time 15.0 day. It counts as functional, organism-based.
Series [6] can be described thus: Half life in male Sprague-Dawley rat at 50 mg/kg, iv measured after 18 hrs LC/MS-MS analysis. It counts as ADME, organism-based. The conditions noted are these: in vivo.
Series [7] is described as follows: AUC (0 to t) in male Sprague-Dawley rat at 50 mg/kg, iv measured after 18 hrs LC/MS-MS analysis. It counts as ADME, organism-based. The conditions noted are these: in vivo.
Series [8] relates to WEHI-3. In words: Antitumor activity against mouse WEHI-3 cells implanted in Balb/c mouse assessed as reduction in liver metastasis at 100 to 200 mg/kg, po administered daily for 15 days by H and E staining based analysis. Format: functional, organism-based. The conditions noted are these: dose 100-200 mg/kg, time 15.0 day.
Series [9] can be described thus: Cmax in male Sprague-Dawley rat at 200 mg/kg, po measured after 18 hrs LC/MS-MS analysis. Format: ADME, organism-based. The conditions noted are these: in vivo.
Series [10] is described as follows: Half life in male Sprague-Dawley rat at 200 mg/kg, po measured after 18 hrs LC/MS-MS analysis. The conditions noted are these: in vivo. It counts as ADME, organism-based.
A short description of series [11]: AUC(0 to t) in male Sprague-Dawley rat at 200 mg/kg, po measured after 18 hrs LC/MS-MS analysis. It counts as ADME, organism-based. The conditions noted are these: in vivo.
Series [12] in a line: Antiproliferative activity against mouse WEHI-3 cells assessed as inhibition cell proliferation incubated for 72 hrs by MTT assay. It counts as functional, cell-based. The conditions noted are these: WEHI-3, 72 h. A general note: Tetrazolium dyes change colour on reduction, which living cells bring about.
A further series has as its system MV4-11. In words: Antiproliferative activity against human MV4-11 cells assessed as inhibition cell proliferation incubated for 72 hrs by MTT assay. Format: functional, cell-based. The conditions noted are these: MV4-11, 72 h.
The next series deals with HCT-116. The series is described as follows: Inhibition of tumor sphere formation in human HCT-116 cells at 1.25 uM incubated for 24 hrs. It counts as functional, cell-based.
A short description of series [13]: Permeability of compound in human Caco-2 cells. Format: ADME, cell-based. A general note: Caco-2 cells form a polarised layer with tight junctions and transporters.
In series [14] the test system is Kasumi 1. The series is described as follows: Antiproliferative activity against human Kasumi 1 cells assessed as inhibition cell proliferation incubated for 72 hrs by MTT assay. It counts as functional, cell-based. The conditions noted are these: Kasumi 1, 72 h.
The test system of series [15] is Kasumi 1. In words: Upregulation of SMARCB1 protein level in human Kasumi 1 cells by pull down based Western blotting analysis. It counts as functional, cell-based. For orientation: In western blotting, separated proteins are transferred to a membrane and probed.
In series [16] the test system is Kasumi 1. The series is described as follows: Upregulation of SMARCA4 protein level in human Kasumi 1 cells by pull down based Western blotting analysis. It counts as functional, cell-based.
Series [17] deals with Kasumi 1. In words: Upregulation of SMARCA2 protein level in human Kasumi 1 cells by pull down based Western blotting analysis. Format: functional, cell-based.
Series [18] deals with Kasumi 1. In words: Induction of apoptosis in human Kasumi 1 cells assessed as increase in caspase-3 level incubated for 24 hrs by Western blotting analysis. Format: functional, cell-based. The conditions noted are these: dose 25-50 µM.
Series [19] deals with Mus musculus. The series is described as follows: Antitumor activity against Balb/c mouse implanted with mouse WEHI-3 cells assessed as reduction in hepatomegaly at 1 mg/kg, po administered once daily for 15 days. It counts as functional, organism-based. The conditions noted are these: time 15.0 day.
The test system of series [20] is WEHI-3. The series is described as follows: Induction of apoptosis in mouse WEHI-3 cells assessed as increase in caspase-3 level incubated for 24 hrs by Western blotting analysis. The conditions noted are these: dose 25-50 µM. Format: functional, cell-based.
Series [21] relates to WEHI-3. In words: Induction of […] in mouse WEHI-3 cells assessed as activation of p-RIPK3 level at 25 to 50 uM incubated for 24 hrs by Western blotting analysis. Format: functional, cell-based. The conditions noted are these: dose 25-50 µM.
Series [22] relates to Kasumi 1. The series is described as follows: Induction of apoptosis in human Kasumi 1 cells assessed as increase in cleaved PARP-1 level incubated for 24 hrs by Western blotting analysis. It counts as functional, cell-based. The conditions noted are these: dose 25-50 µM.
Series [23] has as its system WEHI-3. The series is described as follows: Induction of apoptosis in mouse WEHI-3 cells assessed as increase in cleaved PARP-1 level incubated for 24 hrs by Western blotting analysis. It counts as functional, cell-based. The conditions noted are these: dose 25-50 µM.
Series [24] concerns Kasumi 1. In words: Induction of […] in human Kasumi 1 cells assessed as activation of p-MLKL level at 25 to 50 uM incubated for 24 hrs by Western blotting analysis. It counts as functional, cell-based. The conditions noted are these: dose 25-50 µM.
Series [25] deals with Kasumi 1. The series is described as follows: Induction of […] in human Kasumi 1 cells assessed as activation of p-RIPK3 level at 25 to 50 uM incubated for 24 hrs by Western blotting analysis. Format: functional, cell-based. The conditions noted are these: dose 25-50 µM.
The subject of series [26] is WEHI-3. In words: Induction of […] in mouse WEHI-3 cells assessed as activation of p-MLKL level at 25 to 50 uM incubated for 24 hrs by Western blotting analysis. Format: functional, cell-based. The conditions noted are these: dose 25-50 µM.

The source made the active and inactive calls. No cut-off for these calls is given here.

`CC(C)[Si](O[C@H]1CC[C@H]2[C@@H]3CC(CN4CCC[C@H]4CO)C(=O)O[C@@H]3CC[C@]12C)(C(C)C)C(C)C` (stereo partly drawn) displayed a bioavailability in series [1] of 68.6%. Also, the result with Mus musculus [2], in the series on Mus musculus [4], with Mus musculus [5] and in the series on WEHI-3 [8] was Active. For the same molecule, the Cmax in series [3] was found to be 12100 ng/mL; in series [9], 17700 ng/mL. The figures for the half-life in series [6] and in [10] were 16.3 min and 59.8 min, respectively. For the same molecule, the figures for the AUC(0-t) at 18 h in series [7] and in series [11] were 7150 ng·h/mL and 19600 ng·h/mL, respectively.
As for `C=C1C[C@@H]2[C@@H](CC[C@]3(C)[C@@H](OC(c4ccccc4)(c4ccc(OC)cc4)c4ccc(OC)cc4)CC[C@@H]23)OC1=O`, the figures for the IC50 (in [12]; in the series on MV4-11; in the series with Kasumi 1 [14]) were 940 nM, 3040 nM and 1460 nM, respectively. In addition, the inhibition result with HCT-116 was “inactive”. For the same molecule, in series [13], the permeability result is recorded as “Permeable”.
With `CC(C)[Si](O[C@H]1CC[C@H]2[C@@H]3CC(CCCc4cn(CCOCCOCCOCCNC(=O)CCCC[C@@H]5SC[C@@H]6NC(=O)N[C@@H]65)nn4)C(=O)O[C@@H]3CC[C@]12C)(C(C)C)C(C)C` (stereo partly drawn), the outcome in the series on Kasumi 1 [15], with Kasumi 1 [16] and in the series with Kasumi 1 [17] was Active.
Regarding `C=C1C[C@@H]2[C@@H](CC[C@]3(C)[C@@H](OC(c4ccccc4)(c4ccccc4)c4ccccc4)CC[C@@H]23)OC1=O`, the IC50 amounted to 1030 nM in series [12], 2680 nM in the series with MV4-11 and 1850 nM in the series with Kasumi 1 [14]. Also, in the series on HCT-116, the inhibition result was “inactive”. Also, in series [13], the permeability entry is given as “Permeable”.
Take `COC(=O)C[C@](O)(CCCC(C)(C)O)C(=O)O[C@@H]1C(OC)=C[C@]23CCCN2CCc2cc4c(cc2[C@H]13)OCO4`: the Activity result in the series with Kasumi 1 [18], with WEHI-3 [20], in the series on Kasumi 1 [22] and in the series with WEHI-3 [23] was “Dose-dependent-effect” each time. Moreover, the result with Mus musculus [19] was Active. The outcome in the series with WEHI-3 [21], in the series on Kasumi 1 [24], with Kasumi 1 [25] and with WEHI-3 [26] was inactive.

As a reminder, the bioavailability is dose-corrected exposure relative to a reference, in per cent. High values mean much systemic uptake, low ones little systemic uptake. In general, Cmax refers to the maximum level reached in the sampled fluid or tissue. For orientation: half-life means how long it takes for the measured level to halve. Lower therefore signals fast loss. In general, AUC(0-t) refers to exposure summed from dosing to a finite time, without extrapolation to infinity. Lower therefore signals less exposure. By IC50 is commonly meant the concentration that inhibits the measured activity by half.

For the origin of these results see ChEMBL document CHEMBL6115002, “Discovery of novel sitolactone derivative leading to PANoptosis and differentiation of acute myeloid leukemia cells” (Eur J Med Chem, 2025).
